Experimental data as given in patent US4389412A, “Substituted cyclopropanecarboxylic acid esters and pesticidal compositions containing the same as active ingredient” (priority 1979, dated 1983).
Converted amounts (≈) assume the structure as drawn. Where two headings read alike, the source gives them in different places.

Experiments:
[1] = system: rice stem borers (Chilo suppressalis Walker); assay: Mortality test with rice stem borers by topical application method; type: in vivo; conditions: 24 h; for mortality at 0.001 mg: read-out: Pesticidal effect, rice stem borer
Procedure: Mortality test with rice stem borers (Chilo suppressalis Walker) by topical application method
Using a microsyringe, 0.5 μl of the above solution was applied to the thoracic abdominal region of each final-instar larva of rice stem borer (Chilo suppressalis Walker). […] The test larvae were used in groups of 20 individuals each.

[2] = system: two-spotted spider mites (Tetranychus urticae Koch); assay: Mortality test with two-spotted spider mites by spray application method; type: in vivo; conditions: 48 h, 200 ppm spray, two days, read-out: Percent decrease of population (%)
Procedure: Mortality test with two-spotted spider mites (Tetranychus urticae Koch) by spray application method
To a 5% aqueous solution of acetone was added dropwise a small amount of Tween-20 (polyethylene sorbitan monolaurate) as a surfactant. […] From 30 to 50 adult two-spotted spider mites (Tetranychus urticae Koch) were released on the leaves of kidney-bean plants in the dicotyledonous stage in a pot 9 cm in diameter, followed by a spray application of the above solution. The pot was kept in a constant-temperature chamber at 26° C. and two days later the mites were examined for deaths. The percent decrease of population was then calculated.

carp and water flea = assay: Fish toxicity ranking according to Japanese regulations; set-up: species or system Cyprinus carpio L; Daphnia pulex; conditions: from TLm for carp and water flea
Method in brief: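 Ranking per Japanese agrochemical regulations from median tolerance limits: A = carp TLm (48 hrs.) >10 ppm and water flea TLm (3 hrs.) >0.5 ppm; B = carp 10-0.5 ppm, or carp >10 ppm with water flea <0.5 ppm; C = carp TLm (48 hrs.) <0.5 ppm.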

[3] = system: houseflies (Musca domestica); assay: Mortality test with houseflies by topical application method; conditions: 24 h; for mortality at 0.001 mg: read-out: Pesticidal effect, housefly
Procedure: Mortality test with houseflies (Musca domestica) by topical application method
Each of the compounds according to this invention and the control compounds (Table 2) was accurately weighted and a 0.1% solution of each sample in acetone was prepared. Female adult houseflies (Musca domestica) resistant to organophosphorus pesticides, were anesthetized with ether and 0.5 μl or 1.0 μl of the above solution was micropipetted onto the prothoracic dorsal region of each insect. The insects were then put in a high-walled dish together with feed and the dish was covered with a wire-mesh cover and kept at a temperature of 25° C. The test insects were used in groups of 30 individuals each. After 24 hours the insects were examined for deaths and the percent mortality was calculated.

[4] = Fish toxicity test with carp; type: in vivo, Cyprinus carpio L; conditions: carp, water
Method in brief: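 Compound in acetone with Tween-20 dispersed in 50 L aerated water at a set concentration; five carp (about 6 g, 6 cm) exposed at 21±1° C. Deaths checked after 48 h, and TLm (median tolerance limit, ppm) determined.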

[5] = system: tobacco cutworms (Prodenia litura Fabricius); assay: Mortality test with tobacco cutworms by topical application method; type: in vivo; conditions: 24 h
Procedure: Mortality test with tobacco cutworms (Prodenia litura Fabricius) by topical application method
Using a microsyringe, 0.5 μl of the above solution was dripped onto the thoracic adbominal region of each of 3-instar tobacco cutworm (Prodenia litura Fabricius) larvae. […] The test larvae were used in groups of 20 individuals each.

[6] = system: brown planthoppers (Nilaparvata lugens); assay: Utility Example-7: 0.5% dust on rice seedlings, brown planthoppers; type: in vivo; conditions: 1 kg per 10 ares, 24 hours
From the text: (§1) A 0.5% dust preparation of each of the cis- and trans-isomers and a 50:50 mixture of the cis- and trans-isomers of Compound (1) and of Compound (2) as prepared by the procedure described in Formulation Example-4 was applied to rice seedlings, on which 30 adult brown planthoppers (Nilaparvata lugens) were released, by means of a bell-jar duster at the rate of 1 kg per 10 ares. […] In all cases, the mortality was not less than 90%.

[7] = system: green rice leafhoppers (Nephotettix cincticeps); assay: Utility Example-6: 0.5% dust on rice seedlings, green rice leafhoppers; type: in vivo; conditions: 1 kg per 10 ares, 24 hours, resistant to organophosphorus and carbamate pesticides
From the text: as §1, with “seedlings” for “seedlings, on which 30 adult brown planthoppers (Nilaparvata lugens) were released,”, “ares. Then, 30 green rice leafhoppers (Nephotettix cincticeps) resistant to organophosphorus and carbamate pesticides were released.” for “ares.”

[8] = system: green rice leafhoppers (Nephotettix cincticeps Uhler); assay: Utility Example-2: spray on rice plants, green rice leafhoppers; type: in vivo; conditions: 7 ml/pot, 24 hours
Procedure: A 30% emulsifiable concentrate of each of the cis- and trans-isomers and a 50:50 mixture of the cis- and trans-isomers of Compound (1) and Compound (2) as prepared by the procedure described in Formulation Example-1 was diluted with water to a concentration of 80 ppm as active compound. Rice plants 4 weeks after sowing in pots (each pot 6 cm in diameter, 7 seedlings) were sprayed with the above solution at the rate of 7 ml/pot and, after drying in the air, each pot was covered with a wire-mesh cage. Then, 20 female adult green rice leafhoppers (Nephotettix cincticeps Uhler) were released into the cage. The caged pots were kept in a constant-temperature chamber at 25° C. […] In all groups, the mortality values were not less than 90%.

[9] = 48 hrs., 21±1° C., read-out: TLm, Carp (48 hrs.)
[10] = read-out: Pesticidal effect, tobacco cutworm

SMILES | mortality at 1 µg/larva [1] [%] | mortality at 10 µg/larva [1] [%] | mortality at 0.001 mg [1] [%] | mortality at 200 ppm [2] [%] | Ranking (carp and water flea) | mortality at 0.5 µg/female [3] [%] | mortality at 1 µg/female [3] [%] | mortality at 0.001 mg [3] [%] | LC50 at 48 h [4, 9] [µg/mL] | mortality at 0.0001 mg [5] [%] | mortality at 0.0001 mg [5, 10] [%] | mortality [6] | mortality [7] | LC50 at 48 h ([4]; Table 12 and text of Utility Example-1, read-out: Toxicity to fish TLm) [µg/mL] | mortality at 80 ppm [8] [%]
CC1(C)C(C=C(Cl)Cl)C1C(=O)OCc1cccc(Oc2ccccc2)c1 (stereo not shown) [Compound (B), Permethrin] | 95 | 100 | 95 | 100 | C (TLm (48 hrs.) value <0.5 ppm for carp, wherein toxicity to fishes is so strongly observed by usual application that both the application method and application area are strictly restricted.) | 100 | 100 | 100 | 0.015 (≈ 0.0383 µM) | 85 | 85 |  |  |  | 
C#CC(OC(=O)[C@@H]1[C@@H](C=C(Cl)Cl)C1(C)C)c1cccc(Oc2ccc(Cl)cc2)c1 (relative stereo) [Compound (2) trans-] | 100 | 100 |  | 100 | A (TLm (48 hrs.) value >10 ppm for carp and TLm (3 hrs.) value >0.5 ppm for water flea, wherein toxicity to fishes is not observed by usual application.) | 100 | 100 |  | > 10 | 100 |  | not less than 90% | not less than 90% | > 10 | ≥ 90
C#CC(OC(=O)[C@@H]1[C@H](C=C(Cl)Cl)C1(C)C)c1cccc(Oc2ccc(Cl)cc2)c1 (relative stereo) [Compound (2) cis-] | 100 | 100 |  | 100 | B (TLm (48 hrs.) value 10-0.5 ppm for carp; or TLm (48 hrs.) value >10 ppm for carp and TLm (3 hrs.) value <0.5 ppm for water flea, wherein appreciable toxicity to fishes is not observed by usual application but may be observed when applied to wide area at one time.) | 100 | 100 |  | 0.83 (≈ 1.85 µM) | 100 |  | not less than 90% | not less than 90% |  | ≥ 90
C#CC(OC(=O)C1C(C=C(Cl)Cl)C1(C)C)c1cccc(Oc2ccc(Cl)cc2)c1 (stereo not drawn) [Compound (2) cis-/trans- = 50:50, 3-(4-chlorophenoxy)-α-ethynylbenzyl 2,2-dimethyl-3-(2,2-dichlorovinyl)cyclopropanecarboxylate] | 100 | 100 | 100 | 100 | B (TLm (48 hrs.) value 10-0.5 ppm for carp; or TLm (48 hrs.) value >10 ppm for carp and TLm (3 hrs.) value <0.5 ppm for water flea, wherein appreciable toxicity to fishes is not observed by usual application but may be observed when applied to wide area at one time.) | 100 | 100 | 100 |  | 100 | 100 | not less than 90% | not less than 90% |  | ≥ 90
CC1(C)[C@@H](C=C(Cl)Cl)[C@@H]1C(=O)OCc1cccc(Oc2ccc(Cl)cc2)c1 (relative stereo) [Compound (1) trans-, 3-(4-chlorophenoxy)benzyl trans-2,2-dimethyl-3-(2,2-dichlorovinyl)cyclopropanecarboxylate] | 85 | 100 |  | 100 | B (TLm (48 hrs.) value 10-0.5 ppm for carp; or TLm (48 hrs.) value >10 ppm for carp and TLm (3 hrs.) value <0.5 ppm for water flea, wherein appreciable toxicity to fishes is not observed by usual application but may be observed when applied to wide area at one time.) | 100 | 100 |  | 4.5 (≈ 10.6 µM) | 100 |  | not less than 90% | not less than 90% |  | ≥ 90
